# Experimental data as given in US7138361B2, “Herbicidal heterocycles” (E. I. du Pont de Nemours and Company, priority 2000, dated 2006).
# Assays:
# Format in all cases: in vivo
# [1] = test system: Surinam grass (Brachiaria decumbens); experiment: Test B postemergence; details: 13 to 15 days
# How it was run: (§1)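 Ratings on a 0 to 100 visual scale (100 complete control) compare treated plants with controls 13 to 15 days after application. Treatments were pre- or postemergence sprays of compound in non-phytotoxic solvent with surfactant.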
# [2] = test system: barnyardgrass (Echinochloa crus-galli); experiment: Test B postemergence; details: 13 to 15 days
# How it was run: as §1
# [3] = test system: blackgrass (Alopecurus myosuroides); experiment: Test B postemergence; details: 13 to 15 days
# How it was run: as §1
# [4] = test system: cocklebur (Xanthium strumarium); experiment: Test B postemergence; details: 13 to 15 days
# How it was run: as §1
# corn (Zea mays) [5] = experiment: Test B postemergence; details: 13 to 15 days
# How it was run: as §1
# [6] = test system: crabgrass (Digitaria sanguinalis); experiment: Test B postemergence; details: 13 to 15 days
# How it was run: as §1
# [7] = test system: giant foxtail (Setaria faberii); experiment: Test B postemergence; details: 13 to 15 days
# How it was run: as §1
# [8] = test system: lambsquarters (Chenopodium album); experiment: Test B postemergence; details: 13 to 15 days
# How it was run: as §1
# [9] = test system: morning glory (Ipomoea hederacea); experiment: Test B postemergence; details: 13 to 15 days
# How it was run: as §1
# [10] = test system: pigweed (Amaranthus retroflexus); experiment: Test B postemergence; details: 13 to 15 days
# How it was run: as §1
# [11] = test system: velvetleaf (Abutilon theophrasti); experiment: Test B postemergence; details: 13 to 15 days
# How it was run: as §1
# [12] = test system: wheat (Triticum aestivum); experiment: Test B postemergence; details: 13 to 15 days
# How it was run: as §1
# wild oat (Avena fatua) = experiment: Test B postemergence; details: 13 to 15 days
# How it was run: as §1
# [13] = test system: Surinam grass (Brachiaria decumbens); experiment: Test B preemergence
# How it was run: as §1
# [14] = test system: barnyardgrass (Echinochloa crus-galli); experiment: Test B preemergence
# How it was run: as §1
# [15] = test system: cocklebur (Xanthium strumarium); experiment: Test B preemergence
# How it was run: as §1
# corn (Zea mays) [16] = experiment: Test B preemergence
# How it was run: as §1
# [17] = test system: crabgrass (Digitaria sanguinalis); experiment: Test B preemergence
# How it was run: as §1
# [18] = test system: giant foxtail (Setaria faberii); experiment: Test B preemergence
# How it was run: as §1
# [19] = test system: lambsquarters (Chenopodium album); experiment: Test B preemergence
# How it was run: as §1
# [20] = test system: morning glory (Ipomoea hederacea); experiment: Test B preemergence
# How it was run: as §1
# [21] = test system: pigweed (Amaranthus retroflexus); experiment: Test B preemergence
# How it was run: as §1
# rice (Oryza saliva) [22] = experiment: Test B preemergence
# How it was run: as §1
# [23] = test system: velvetleaf (Abutilon theophrasti); experiment: Test B preemergence
# How it was run: as §1
# [24] = test system: barnyardgrass (Echinochloa crus-galli); experiment: Test B flooded paddy test; details: Rate 1000 g/ha, scale of 0 to 100 where 0 is no effect and 100 is complete control, visually evaluated after 13 to 15 days
# How it was run: (§2)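 Treatment: formulated chemical applied to flooded paddy plants at 2-leaf stage. Hold: greenhouse, 13–15 days. Scoring: visual comparison to controls, 0 (no effect) to 100 (complete control).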
# [25] = test system: duck salad (Heteranthera limosa); experiment: Test B flooded paddy test; details: Rate 1000 g/ha, scale of 0 to 100 where 0 is no effect and 100 is complete control, visually evaluated after 13 to 15 days
# How it was run: as §2
# rice (Oryza saliva) [26] = experiment: Test B flooded paddy test; details: Rate 1000 g/ha, scale of 0 to 100 where 0 is no effect and 100 is complete control, visually evaluated after 13 to 15 days
# How it was run: as §2
# [27] = test system: smallflower flatsedge (Cyperus difformis); experiment: Test B flooded paddy test; details: Rate 1000 g/ha, scale of 0 to 100 where 0 is no effect and 100 is complete control, visually evaluated after 13 to 15 days
# How it was run: as §2
# [28] = test system: barnyardgrass (Echinochloa crus-galli); experiment: Test C flooded paddy test; details: for Barnyardgrass plant response rating: Flooded Paddy, scale 0 to 100, 0 no effect, 100 complete control; for Plant response rating, Barnyardgrass: flooded paddy test, scale 0 to 100 (0 no effect, 100 complete control)
# How it was run: (§3)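 Greenhouse-maintained for 12 to 14 days after treatment, the paddy plants (2-leaf stage at application) were scored visually against controls. A score of 0 denotes no effect and a score of 100 denotes complete control.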
# [29] = test system: duck salad (Heteranthera limosa); experiment: Test C flooded paddy test; details: for Ducksalad plant response rating: Flooded Paddy, scale 0 to 100, 0 no effect, 100 complete control; for Plant response rating, Ducksalad: flooded paddy test, scale 0 to 100 (0 no effect, 100 complete control)
# How it was run: as §3
# rice (Oryza saliva) [30] = experiment: Test C flooded paddy test; details: for Rice plant response rating: Flooded Paddy, scale 0 to 100, 0 no effect, 100 complete control; for Plant response rating, Rice: flooded paddy test, scale 0 to 100 (0 no effect, 100 complete control)
# How it was run: as §3
# [31] = test system: smallflower flatsedge (Cyperus difformis); experiment: Test C flooded paddy test; details: for Flatsedge plant response rating: Flooded Paddy, scale 0 to 100, 0 no effect, 100 complete control; for Plant response rating, Flatsedge: flooded paddy test, scale 0 to 100 (0 no effect, 100 complete control)
# How it was run: as §3
# [32] = Rate 125 g/ha, scale 0 (no effect) to 100 (complete control)
# [33] = Rate 500 g/ha, scale 0 to 100, 0 is no effect, 100 is complete control
# [34] = Preemergence, Rate 500 g/ha, scale 0 to 100, 0 no effect, 100 complete control
# [35] = preemergence, Rate 125 g/ha, scale of 0 to 100 where 0 is no effect and 100 is complete control, 13 to 15 days
structure (smiles),measurement,setting,value
CC(C)(C)c1ccn(C2CCN(c3cc(C(F)(F)F)cc(C(F)(F)F)c3)C2=O)n1 (centres unmarked) [Compound 54],"Plant response rating, Surinam grass",[1]; [32],0
same,"Plant response rating, Surinam grass",[1]; [33],0
same,"Plant response rating, Barnyardgrass",[2]; [32],0
same,"Plant response rating, Barnyardgrass",[2]; [33],0
same,"Plant response rating, Blackgrass",[3]; [32],0
same,"Plant response rating, Blackgrass",[3]; [33],0
same,"Plant response rating, Cocklebur",[4]; [32],0
same,"Plant response rating, Cocklebur",[4]; [33],20
same,"Plant response rating, Corn",corn (Zea mays) [5]; [32],0
same,"Plant response rating, Corn",corn (Zea mays) [5]; [33],0
same,"Plant response rating, Crabgrass",[6]; [32],0
same,"Plant response rating, Crabgrass",[6]; [33],0
same,"Plant response rating, Foxtail, Giant",[7]; [32],0
same,"Plant response rating, Foxtail, Giant",[7]; [33],0
same,"Plant response rating, Lambsquarters",[8]; [32],0
same,"Plant response rating, Lambsquarters",[8]; [33],30
same,"Plant response rating, Morningglory",[9]; [32],0
same,"Plant response rating, Morningglory",[9]; [33],20
same,"Plant response rating, Pigweed",[10]; [32],0
same,"Plant response rating, Pigweed",[10]; [33],0
same,"Plant response rating, Velvetleaf",[11]; [32],0
same,"Plant response rating, Velvetleaf",[11]; [33],0
same,"Plant response rating, Wheat",[12]; [32],0
same,"Plant response rating, Wheat",[12]; [33],0
same,"Plant response rating, Wild Oat",wild oat (Avena fatua); [32],0
same,"Plant response rating, Wild Oat",wild oat (Avena fatua); [33],0
same,"Plant response rating, Surinam grass",[13]; [34],0
same,"Plant response rating, Surinam grass",[13]; [35],0
same,"Plant response rating, Barnyardgrass",[14]; [34],0
same,"Plant response rating, Barnyardgrass",[14]; [35],0
same,"Plant response rating, Cocklebur",[15]; [34],0
same,"Plant response rating, Cocklebur",[15]; [35],0
same,"Plant response rating, Corn",corn (Zea mays) [16]; [34],0
same,"Plant response rating, Corn",corn (Zea mays) [16]; [35],0
same,"Plant response rating, Crabgrass",[17]; [34],0
same,"Plant response rating, Crabgrass",[17]; [35],0
same,"Plant response rating, Foxtail, Giant",[18]; [34],0
same,"Plant response rating, Foxtail, Giant",[18]; [35],0
same,"Plant response rating, Lambsquarters",[19]; [34],0
same,"Plant response rating, Lambsquarters",[19]; [35],0
same,"Plant response rating, Morningglory",[20]; [34],0
same,"Plant response rating, Morningglory",[20]; [35],0
same,"Plant response rating, Pigweed",[21]; [34],0
same,"Plant response rating, Pigweed",[21]; [35],0
same,"Plant response rating, Rice",rice (Oryza saliva) [22]; [34],0
same,"Plant response rating, Rice",rice (Oryza saliva) [22]; [35],0
same,"Plant response rating, Velvetleaf",[23]; [34],0
same,"Plant response rating, Velvetleaf",[23]; [35],0
same,"Plant response rating, Barnyardgrass",[24],80
same,"Plant response rating, Ducksalad",[25],30
same,"Plant response rating, Rice",rice (Oryza saliva) [26],0
same,"Plant response rating, Flatsedge",[27],90
same,Barnyardgrass plant response rating,[28]; Rate 250 g/ha,20
same,Barnyardgrass plant response rating,[28]; Rate 500 g/ha,20
same,"Plant response rating, Barnyardgrass",[28]; Rate 62 g/ha,0
same,"Plant response rating, Barnyardgrass",[28]; Rate 125 g/ha,0
same,Ducksalad plant response rating,[29]; Rate 250 g/ha,0
same,Ducksalad plant response rating,[29]; Rate 500 g/ha,0
same,"Plant response rating, Ducksalad",[29]; Rate 62 g/ha,0
same,"Plant response rating, Ducksalad",[29]; Rate 125 g/ha,0
same,Rice plant response rating,rice (Oryza saliva) [30]; Rate 250 g/ha,0
same,Rice plant response rating,rice (Oryza saliva) [30]; Rate 500 g/ha,0
same,"Plant response rating, Rice",rice (Oryza saliva) [30]; Rate 62 g/ha,0
same,"Plant response rating, Rice",rice (Oryza saliva) [30]; Rate 125 g/ha,0
same,Flatsedge plant response rating,[31]; Rate 250 g/ha,0
same,Flatsedge plant response rating,[31]; Rate 500 g/ha,80
same,"Plant response rating, Flatsedge",[31]; Rate 62 g/ha,0
same,"Plant response rating, Flatsedge",[31]; Rate 125 g/ha,0
